In PubChem BioAssay (NCI) one finds GI50 and TGI data, which are given here for eight compounds.

Molecules are shown by their SMILES.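 Five concentrations, 48 hours, 96-well plates. Abbreviation: GI50, concentration required for 50% inhibition of growth. TGI is the concentration that stops growth completely.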 Where only a bound is given, the exact number is not on record here.

Test systems include 786-0 renal; OVCAR-8 ovarian; EKVX NSCLC; SF-539 CNS; NCI-H23 lung; HL-60(TB) leukemia; UACC-257 melanoma; UACC-62 melanoma; SF-268 CNS; SK-MEL-2 melanoma.
Test in all cases: inhibition of tumour cell growth, NCI panel, 48 h

In the case of `COc1ccc([C@H]2O[C@@H](CO)C[C@]2(O)c2ccc(OC)cc2)cc1`, the GI50 in the experiment on 786-0 renal is more than 100 µM; in the experiment on OVCAR-8 ovarian it was more than 100 µM; in the experiment on EKVX NSCLC it was more than 100 µM; in the experiment on SF-539 CNS, more than 100 µM; with NCI-H23 lung it was more than 100 µM; in the experiment with HL-60(TB) leukemia, 39.3 µM. The GI50 in the experiment with UACC-257 melanoma, in the experiment on UACC-62 melanoma and in the experiment on SF-268 CNS was more than 100 µM throughout. For the same compound, the TGI in the experiment with 786-0 renal, in the experiment on OVCAR-8 ovarian, in the experiment on EKVX NSCLC, in the experiment on SF-539 CNS, in the experiment with NCI-H23 lung and in the experiment with HL-60(TB) leukemia was more than 100 µM each time. Besides, the TGI in the experiment with UACC-257 melanoma, in the experiment on UACC-62 melanoma and in the experiment on SF-268 CNS was more than 100 µM throughout.
Consider `Cn1c(=O)c2[nH]c(COc3ccc(C(C)(C)C)cc3)nc2n(C)c1=O`, for which the GI50 is 19.5 µM in the experiment with 786-0 renal; 18.3 µM in the experiment on OVCAR-8 ovarian; 3.34 µM in the experiment on EKVX NSCLC; 36.7 µM in the experiment on SF-539 CNS; 5.29 µM with NCI-H23 lung; 10.6 µM in the experiment with HL-60(TB) leukemia. The GI50 with UACC-257 melanoma is 6.03 µM; with UACC-62 melanoma it was 5.56 µM; in the experiment on SF-268 CNS, 14.1 µM. The TGI with 786-0 renal is more than 100 µM; in the experiment on OVCAR-8 ovarian, 67.1 µM; in the experiment on EKVX NSCLC, more than 100 µM; with SF-539 CNS it was more than 100 µM; in the experiment on NCI-H23 lung it was more than 100 µM; in the experiment on HL-60(TB) leukemia it was 50.3 µM. Also, the TGI was 31.6 µM in the experiment with UACC-257 melanoma, 72.4 µM in the experiment with UACC-62 melanoma and more than 100 µM in the experiment with SF-268 CNS.
For the compound `CC1=C2C(c3ccccc3)(c3ccccc3)C3C=CC2(C=N3)N(C(=O)NC2CCCCC2)C1=O` (stereo not drawn), the TGI was 29.4 µM with 786-0 renal; 33.6 µM in the experiment on OVCAR-8 ovarian; 28.7 µM in the experiment with EKVX NSCLC; 30.7 µM with SF-539 CNS; 32.5 µM in the experiment on NCI-H23 lung; 30.2 µM with HL-60(TB) leukemia. Further, the values for the TGI in the experiment on UACC-257 melanoma, in the experiment on UACC-62 melanoma and in the experiment on SF-268 CNS were 30.9 µM, 33.4 µM and 34.7 µM, respectively.
In the case of `O=C(/C=C/c1cccc(Cl)c1)c1ccc(Cl)cc1Cl`, the GI50 in the experiment on 786-0 renal was 12.9 µM; with OVCAR-8 ovarian it was 12 µM; with EKVX NSCLC, 12.8 µM; in the experiment on SF-539 CNS, 12.6 µM; with SK-MEL-2 melanoma, 11.8 µM; in the experiment on NCI-H23 lung, 10.2 µM. The results for the GI50 with HL-60(TB) leukemia, in the experiment on UACC-62 melanoma and in the experiment with SF-268 CNS were 25.3 µM, 11.1 µM and 10.2 µM, respectively. For the same compound, the TGI with 786-0 renal is 27.6 µM; in the experiment on OVCAR-8 ovarian, 36.9 µM; in the experiment with EKVX NSCLC, 34.4 µM; with SF-539 CNS, 28 µM; with SK-MEL-2 melanoma, 33 µM; in the experiment on NCI-H23 lung, 19.3 µM. Also, the TGI in the experiment with HL-60(TB) leukemia was more than 50 µM; in the experiment with UACC-62 melanoma it was 29 µM; with SF-268 CNS, 25.1 µM.
Turning to `COc1ccc(/C=C2\COc3ccc(-c4ccccc4)cc3C2=O)cc1O`, the GI50 with 786-0 renal is 5.02 µM; with OVCAR-8 ovarian, 2.43 µM; with EKVX NSCLC, 6.71 µM; with SF-539 CNS it was 2.45 µM; in the experiment on SK-MEL-2 melanoma, 2.17 µM; in the experiment on NCI-H23 lung, 4.09 µM. Further, the GI50 with HL-60(TB) leukemia is 2.29 µM; with UACC-62 melanoma, 3.59 µM; in the experiment with SF-268 CNS it was 3.18 µM. In addition, the TGI in the experiment with 786-0 renal was 15.7 µM; in the experiment with OVCAR-8 ovarian, 6.56 µM; in the experiment on EKVX NSCLC it was more than 100 µM; in the experiment with SF-539 CNS, 6.38 µM; in the experiment with SK-MEL-2 melanoma it was 6.1 µM; in the experiment on NCI-H23 lung, 16.6 µM. Moreover, the TGI in the experiment with HL-60(TB) leukemia was more than 100 µM; with UACC-62 melanoma, 18.1 µM; with SF-268 CNS, 12.7 µM.
Turning to `COc1ccccc1/C=C\c1cc(OC)c(OC)c(OC)c1`, the TGI with 786-0 renal is more than 100 µM; in the experiment with OVCAR-8 ovarian, more than 100 µM; in the experiment on EKVX NSCLC, more than 100 µM; in the experiment on SF-539 CNS, 46.4 µM; in the experiment on HL-60(TB) leukemia it was 20.1 µM; in the experiment on UACC-257 melanoma it was more than 100 µM. Further, in the experiment on UACC-62 melanoma, the TGI is more than 100 µM.
In the case of `O=c1cccccc1NCCCCNc1cccccc1=O`, the TGI with 786-0 renal, in the experiment on OVCAR-8 ovarian, with EKVX NSCLC, with SK-MEL-2 melanoma, in the experiment with NCI-H23 lung and in the experiment on HL-60(TB) leukemia was more than 100 µM each time. Besides, the TGI in the experiment with UACC-257 melanoma, in the experiment on UACC-62 melanoma and in the experiment on SF-268 CNS was more than 100 µM each time.
With `Fc1ccc(-c2ncn(C3CCNCC3)c2-c2ccnc(Oc3cccc(F)c3)n2)cc1`, the GI50 with 786-0 renal is more than 23.5 µM; with OVCAR-8 ovarian, more than 25 µM; in the experiment on EKVX NSCLC, more than 25 µM; with SF-539 CNS it was 10.7 µM; with SK-MEL-2 melanoma, more than 25 µM; in the experiment with HL-60(TB) leukemia, more than 16.6 µM. Further, the values for the GI50 in the experiment on UACC-62 melanoma and with SF-268 CNS were 10.5 µM and more than 23.3 µM, respectively. The TGI with 786-0 renal, with OVCAR-8 ovarian, with EKVX NSCLC, in the experiment with SF-539 CNS, with SK-MEL-2 melanoma and with HL-60(TB) leukemia was more than 25 µM in each case. Also, the TGI in the experiment on UACC-62 melanoma was more than 18.6 µM; with SF-268 CNS, more than 25 µM.
